From patent US12582638B2, “Pharmaceutical composition for treating cancer, containing mTOR-signaling inhibitor as active ingredient” (KOREA ADVANCED INSTITUTE OF SCIENCE AND TECHNOLOGY, priority 2020, dated 2026)

How the values were obtained:
COV434 = test: Cell viability, CellTiterGlo, 72 hours; type: cell-based; conditions: COV434 cells, Ovary
Description: In addition to the colorectal cells, 120 cancer cell lines treated with various concentrations of lomitapide were assayed for viability.
To analyze cell viability, the cells were incubated with lomitapide at 37° C. for 72 hours in a 5% or 10% CO2 atmosphere and then equilibrated at room temperature for 1 hour, followed by addition of CellTiterGlo reagent (Promega). One hour later, luminescence was measured to calculate cell viability (%). The 120 cell lines were purchased from ATCC (American Type Culture Collection, Virginia, USA).

BT-20 = test: Cell viability, CellTiterGlo, 72 hours; type: cell-based; conditions: Homo sapiens, BT-20 cells, Breast
How it was run: (§1)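 Cancer cell lines were exposed to various concentrations of lomitapide at 37° C in 5% or 10% CO2. After equilibration to room temperature for 1 hour, CellTiterGlo reagent was added, and luminescence read 1 hour later gave percent viability.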

DU-145 = test: Cell viability, CellTiterGlo, 72 hours; type: cell-based; conditions: Homo sapiens, DU-145 cells, Prostate
How it was run: as §1

H460 = test: Cell viability, CellTiterGlo, 72 hours; type: cell-based; conditions: Homo sapiens, NCI-H460, H460 cells, Lung
How it was run: as §1

HCC827 = test: Cell viability, CellTiterGlo, 72 hours; type: cell-based; conditions: Homo sapiens, HCC827 cells, Lung
How it was run: as §1

HT-29 = test: Cell viability, CellTiterGlo, 72 hours; type: cell-based; conditions: Homo sapiens, HT-29 cells, Colon
How it was run: as §1

LnCap = test: Cell viability, CellTiterGlo, 72 hours; type: cell-based; conditions: Homo sapiens, LnCap cells, Prostate
How it was run: as §1

OCI-LY19 = test: Cell viability, CellTiterGlo, 72 hours; type: cell-based; conditions: Homo sapiens, OCI-LY19 cells, Blood
How it was run: as §1

OV56 = test: Cell viability, CellTiterGlo, 72 hours; type: cell-based; conditions: OV56 cells, Ovary
How it was run: as §1

OVCAR-3 = test: Cell viability, CellTiterGlo, 72 hours; type: cell-based; conditions: Homo sapiens, OVCAR-3 cells, Ovary
How it was run: as §1

RPMI 8226 = test: Cell viability, CellTiterGlo, 72 hours; type: cell-based; conditions: Homo sapiens, RPMI 8226 cells, Blood
How it was run: as §1

SJSA-1 = test: Cell viability, CellTiterGlo, 72 hours; type: cell-based; conditions: Homo sapiens, SJSA-1 cells, Bone
How it was run: as §1

U-937 = test: Cell viability, CellTiterGlo, 72 hours; type: cell-based; conditions: Homo sapiens, U-937 cells, Blood
How it was run: as §1

p-S6K, p-S6, LC3 = test: Cell signaling assay, western blot, SNU2; type: cell-based, human; conditions: 0, 5, and 10 μM, FIG. 7g
Description: Cells treated with various concentration (0, 5, and 10 μM) of lomitapide were lysed with RIPA buffer containing a protease-inhibitor cocktail. The whole-cell lysate was incubated on ice for 30 minutes. After centrifugation at 4° C. and 13,300×g for 15 minutes, the supernatant was collected. For use as controls, cells were treated with 1 μM of torin, known as an mTOR inhibitor.
For western blot analysis, the supernatant was loaded onto 10% SDS-PAGE gel. The separated proteins were blotted onto a PVDF membrane. Then, the blots were incubated with antibodies at 4° C. for 12 hours as follows (Table 3).
Then, the blots were washed with TBST (a mixture of tris-buffered saline (TBS) and Tween 20), incubated with horseradish peroxidase-conjugated secondary antibody (Cell signaling) at 37° C. for 1 hour, and washed, followed by detecting enhanced chemiluminescence (ECL; Amersham).

HCT116 = test: RNA-seq assay, gene set enrichment, pathway enrichment and DEG analysis; type: cell-based, human; conditions: FIG. 12
Description: For the final detection of significant gene-sets, gene annotation databases (KEGG pathway, Gene Ontology, etc.) with various biological information about genes were used to discover various gene-sets by grouping genes with specific functions among all the genes used in the RNA-seq experiment. Significant genes were determined with reference to a difference in expression values between the two classes within each gene-set, and statistically significant gene-set was finally detected based on the significant genes. […] In DEG analysis, expression values of genes are measured and statistically processed to select a significant gene candidate group (differentially expression genes) with a difference in expression between a control and a comparison group.

Which IC50 (COV434) does the source give for `O=C(NC1CCN(CCCCC2(C(=O)NCC(F)(F)F)c3ccccc3-c3ccccc32)CC1)c1ccccc1-c1ccc(C(F)(F)F)cc1` [lomitapide, N-(2,2,2-trifluoroethyl)-9-[4-[4-[[[4′-(trifluoromethyl)[1,1′-biphenyl]2-yl]carbonyl]amino]-1-piperidinyl]butyl]-9H-fluoren-9-carboxamide] here?
Its IC50 is 3.1 µM.

What about the IC50 (BT-20) of the same compound?
Its IC50 is 5 µM.

And the IC50 (DU-145)?
Its IC50 is 5 µM.

What about the IC50 (H460) of the same compound?
Its IC50 is 3.8 µM.

And the IC50 (HCC827)?
The IC50 was 4.1 µM.

And the IC50 (HT-29)?
The IC50 was 1.6 µM.

What about the IC50 (LnCap) of the same compound?
Its IC50 is 3.5 µM.

What about the IC50 (OCI-LY19) of the same compound?
The IC50 was 2.8 µM.

And the IC50 (OV56)?
Its IC50 is 4.8 µM.

What about the IC50 (OVCAR-3) of the same compound?
Its IC50 is 5.3 µM.

What about the IC50 (RPMI 8226) of the same compound?
The IC50 was 2.1 µM.

And the IC50 (SJSA-1)?
The IC50 was 3.1 µM.

What about the IC50 (U-937) of the same compound?
Its IC50 is 2.3 µM.

And the “conversion from LC3I into LC3II” value (p-S6K, p-S6, LC3)?
Its value is “increased induction of conversion from LC3I into LC3II”.

And the “phosphorylation levels of target proteins (p-S6K, p-S6)” value (p-S6K, p-S6, LC3; dose-dependent)?
Its value is “remarkably decreased phosphorylation levels”.

What about the “expression of autophagy-related genes ATG family, ULK1, and DDIT4 (DEG analysis)” value (HCT116) of the same compound?
The value was “significantly expressed”.
